Assay [1] relates to Normal human keratinocytes (newborn infant foreskin-derived epidermal keratinocyte). As to the kind of experiment: Growth of normal human keratinocytes (H3-thymidine uptake). The format is cell-based. As to conditions: for IC50: Homo sapiens, Keratinocyte, H3-thymidine uptake, 22 h + 2 h culture, 0.01 to 10 μM, read-out: Human keratinocyte growth inhibition IC50. As for the experimental part: Normal human keratinocytes (purchased from Kurabo Industries, Ltd.) were inoculated on a 48-well plate (Coster Corp.) at a concentration of 4×10^4 cells/well/500 μL, and were cultured overnight at 37° C. in the presence of 5% CO2. A compound of the present invention or activated vitamin D3 (Calcitriol; Wako Pure Chemical Industries, Ltd.) was added to a final concentration of 0.01 to 10 μM, and the cells were cultured for 22 hours. H^3-thymidine (Amersham plc.) was added, and the cells were incubated for another 2 hours. Subsequently, the cells were recovered after washing, and in a liquid scintillation counter (Packard Instrument Company, Inc.), the radioactivity taken up by the cells was measured. The results are presented as a ratio of the radioactivity taken up by the cells upon drug addition, with respect to the radioactivity of the case with no drug addition (Control), which was taken as 100%. The IC50 value, which is the concentration of the drug for inhibiting the uptake of radioactivity to 50% with respect to the control, was lower in the case of any of the Compounds 1 to 8 than in the case of Calcitriol.

Another assay deals with VCAM-1 expression. Nature of the assay: VCAM-1 expression inhibitory activity in TNFα-stimulated HUVEC. The format is cell-based. The settings on record: Homo sapiens, TNFα 10 ng/mL, 4.5 hours, read-out: VCAM-1 expression inhibitory action IC50. As for the experimental part:
Human umbilical vein endothelial cells (HUVEC) (Sanko Junyaku Co., Ltd.) were suspended in EGM-2 medium (Sanko Junyaku Co., Ltd.) at a concentration of 5×10^4 cells/mL, and were inoculated on a 96-well plate (Corning Corp.) at a concentration of 1×10^4 cells/well. The cells were cultured at 37° C. in the presence of 5% CO2 for 4 days, then 100 μL of the medium was removed, and 25 μL each of the substance under test and TNFα (final concentration 10 ng/mL, PeproTech, Inc.) were added. After incubating the cells for 4.5 hours at 37° C., the medium was removed, and each well was washed once with 100 μL of Hank's Balanced Salt Solution containing 0.5% bovine serum albumin and 0.02% sodiumazide (HBSS/BSA). Subsequently, 30 μL of a blocking solution (1% whole goat serum (ICN Biomedicals, Inc.)/HBSS/BSA) was added, and the plate was left to stand for 30 minutes on the ice. After washing once with 100 μL of HBSS/BSA, 1 μg/mL of anti-human VCAM-1 antibody (Genzyme-Techne, Inc.) was added to each well in an amount of 30 μL, and the plate was incubated on the ice for 1 hour. After washing three times with HBSS/BSA (200 μL), peroxidase-labeled goat anti-mouse IgG antibody (Pierce Biotechnology, Inc.) diluted 2000-folds with HBSS/BSA was added in an amount of 30 μL/well, and was allowed to react for 1 hour. After washing 5 times with HBSS/BSA as described above, 100 μL/well of TMB substrate (Moss Inc.) was added, an enzymatic reaction was allowed to proceed for 15 to 30 minutes at 25° C., and then 1 mol/L sulfuric acid was added in an amount of 25 μL/well to stop the reaction. The absorbance at 492 nm was measured using a reference wavelength of 620 nm and using a 96-well plate spectrophotometer, Multiscan MS-UV (Labsystems, Inc.). The inhibitory rate was determined by taking the absorbance for the case of TNFα stimulation without drug addition, as 100%. In addition, the measurement was performed three times for each group.

For assay [2], the system named is TPA-stimulated SKH1-hrBR-Hairless mouse. As to the kind of experiment: Skin thickening in TPA-stimulated hairless mouse. The format is in vivo. The settings on record: dorsal application of 50 μL after 10 nmol TPA, measured after 24 hours (FIG. 1). As for the experimental part: As an animal model for psoriasis, hairless mice stimulated with 12-O-tetradecanoylphorbol-13-acetate (hereinafter, referred to as TPA) were used (Sato, et al., Dermatology (1996) 192, 233-238). That is, on the dorsal side of a 7 to 8 weeks old female SKH1-hrBR-Hairless mouse (Charles River Laboratories Japan, Inc.), 10 nmol of TPA dissolved in acetone was applied, and then 50 μL of either the drug dissolved in acetone or Bonalfa (registered trademark) High (Teijin Pharma, Ltd.) was applied. After 24 hours, the thickness of the skin on the dorsal side was measured using a dial thickness gauge (Peacock G-1A, Ozaki MFG. Co., Ltd.), and the difference between the measured skin thickness and the skin thickness measured before TPA application was determined. The thickening of the skin thickness was suppressed by the application of the activated vitamin D3 preparation (Bonalfa (registered trademark) High). Also, the thickening of the skin thickness was suppressed by the application of the Compound 4.

Read-outs that look alike come from different tables or passages of the source.

By IC50 is commonly meant the concentration needed to halve the response being measured. In the case of `COc1cc(-c2cc(CN3CCC(N(C)Cc4ccnc(-c5cc(OC)c(OC)c(OC)c5)c4)CC3)ccn2)cc(OC)c1OC` [Compound 1], the IC50 in assay [1] (24 h) was determined as 66 nM; in the assay on VCAM-1 expression it was 80 nM.

`COc1ccc(N(Cc2ccnc(-c3cc(OC)c(OC)c(OC)c3)c2)C2CCN(Cc3ccnc(-c4cc(OC)c(OC)c(OC)c4)c3)CC2)cc1` [Compound 4]: the IC50 in assay [1] (24 h) was 247 nM; in assay [1], 247 nM; in the assay on VCAM-1 expression it was 20 nM. The “Efficacy relative to Calcitriol (keratinocyte growth inhibition IC50)” value in assay [1] (compared with Calcitriol) is recorded as “about 8 times”. Further, in assay [2], the “Thickening of the skin thickness” value was “suppressed”.

Take `COc1cc(-c2cncc(CN(c3ccc(SC)cc3)C3CCN(Cc4ccnc(-c5cc(OC)c(OC)c(OC)c5)c4)CC3)c2)cc(OC)c1OC` [Compound 2]: the IC50 amounted to 44 nM in assay [1] (24 h) and 5 nM in the assay with VCAM-1 expression.

Take `COc1cc(OC)cc(N(Cc2ccnc(-c3cc(OC)c(OC)c(OC)c3)c2)C2CCN(Cc3ccnc(-c4cc(OC)c(OC)c(OC)c4)c3)CC2)c1` [Compound 3]: the IC50 in assay [1] (24 h) was found to be 49 nM.

These data come from US20090042901A1, “AGENT FOR PREVENTION/THERAPY OF DISEASE CAUSED BY KERATINOCYTE GROWTH” (KOWA CO., LTD., priority 2005, published 2009).
